Measured values: publication PMC6321136, “Combined In Vitro Studies and in Silico Target Fishing for the Evaluation of the Biological Activities of Diphylleia cymosa and Podophyllum hexandrum” (Molecules, 2018)
≈ marks a conversion by molar mass, not a printed value. Like-named read-outs stand apart in the source and are kept apart here.

Columns and labels:
[1] = Thiobarbituric acid reactive substances (TBARS) assay; parameters: species or system bovine
Procedure: The evaluation of antioxidant activity using the TBARS assay, with adaptations. Briefly, the samples were solubilized in methanol (50.0 to 31.25 μg/mL) and a portion of 25 μL of each extract solution was added to 10 mL test tubes in triplicate (two reaction tubes and one control). The tubes corresponding to the blank, negative and positive controls were prepared by adding 25 μL of deionized water, MeOH or propylgalate (Sigma, St. Louis, MO, USA, 0.1 mM), respectively. The phospholipid liposomes were prepared using bovine brain extract type VII (Sigma Aldrich, St. Louis, MO, USA, 10 mg/mL) in phosphate buffered saline (PBS) solution. The suspension was subjected to an ultrasonic bath until the formation of the liposomes. […] The butanolic phase was removed and transferred to a 96-well microplate, and the absorbance was recorded on a Multiskan Go microplate reader (Thermo Scientific, Whaltham, MA, USA) at 532 nm. The percentage of inhibition (%I) of lipid peroxidation was calculated as: %I = ((AC − AS)/AC) × 100 where AC is the absorbance of control, AS is the absorbance of samples. Assays were performed in triplicate and IC50 values were determined by non-linear regression using GraphPad Prism, version 6.0 (GraphPad Software, San Diego, CA, USA). […]

[2] = Cytotoxicity in THP-1 cells, SRB method; format: cell-based; conditions: human, THP-1 cells (PMA-treated, adherent)
Procedure: The assay was performed following the sulforhodamine B (SRB) method. THP-1 cells (acute human monocytic leukemia cells, ATCC TIB-202) were cultured in a RPMI medium supplemented with 10% fetal bovine serum. A cell suspension was prepared at the density of 1 × 10^6 cells/mL with 2 μL of PMA (phorbol myristyl acetate, Sigma, St. Louis, MO, USA, 30 µg/mL). A portion of 100 μL of this suspension was transferred to the wells of a microplate. The plate was incubated at 37 °C, in a 5% CO2 atmosphere, for about 12 to 16 h to allow cells to adhere. After that, 100 μL of each sample (400, 200, 100, 50 and 25 μg/mL) were added to the wells. The plate was then incubated at 37 °C for 18 h. After incubation, 100 μL of cold trichloroacetic acid (TCA, 10%) solution was added in each well. The plate was incubated at 4 °C for 1 h. The supernatant was discarded and the wells were washed three times with 200 μL of distilled water. Then, the wells were allowed to dry for 24 h. […] The plate was then stirred for 5 min inside the microplate reader. The optical density was measured at 510 nm in a microplate reader. […] Cell viability was calculated according to the formula (A − B/C − B) × 100, where A, B and C corresponds to the absorbance measured for the samples, blank and negative control, respectively. […]

[3] = tested on: THP-1 cells; conditions: THP-1 cells at 10 µM; ref [69]; cited from earlier work
[4] = tested on: Activate, aryl hydrocarbon receptor (AhR); parameters: method as in PubChem Bioassay AID 743122; conditions: ref PubChem Bioassay AID 743122; cited from earlier work
[5] = tested on: Agonist, hypoxia; parameters: method as in PubChem Bioassay AID 1224894; conditions: ref PubChem Bioassay AID 1224894; cited from earlier work
[6] = tested on: Agonist, retinoic acid receptor (RAR); parameters: method as in PubChem Bioassay AID 1159553; conditions: ref PubChem Bioassay AID 1159553; cited from earlier work
[7] = tested on: Angiogenesis model; parameters: method as in PubChem Bioassay AID 575; conditions: ref PubChem Bioassay AID 575; cited from earlier work
[8] = tested on: Antagonist, thyroid receptor (TR); parameters: method as in PubChem Bioassay AID 743067; conditions: ref PubChem Bioassay AID 743067; cited from earlier work
[9] = tested on: Anticancer, Leukemia; parameters: method as in PubChem Bioassay AID 258; conditions: ref PubChem Bioassay AID 258; cited from earlier work
[10] = tested on: Anticancer, Melanoma; parameters: method as in PubChem Bioassay AID 192; conditions: ref PubChem Bioassay AID 192; cited from earlier work
[11] = tested on: Cytotoxicity, A549; parameters: method as in PubChem Bioassay AID 371; conditions: ref PubChem Bioassay AID 371; cited from earlier work
[12] = tested on: Cytotoxicity, Agonist, endoplasmic reticulum stress response; parameters: method as in PubChem Bioassay AID 1159517; conditions: ref PubChem Bioassay AID 1159517; cited from earlier work
[13] = tested on: Cytotoxicity, Antagonist, androgen receptor (AR); parameters: method as in PubChem Bioassay AID 743033; conditions: ref PubChem Bioassay AID 743033; cited from earlier work
[14] = tested on: Cytotoxicity, Antagonist, androgen receptor (AR); parameters: method as in PubChem Bioassay AID 1259242; conditions: ref PubChem Bioassay AID 1259242; cited from earlier work

SMILES: COc1cc([C@@H]2c3cc4c(cc3[C@H](O)[C@H]3COC(=O)[C@H]23)OCO4)cc(OC)c1OC [Podophyllotoxin, podophyllotoxin]
- Antioxidant Activity (IC50-µg/mL) TBARS Assay [1]: >50 µg/mL
- CC50 at 18 h [2]: 400 ± 10.3 µg/mL (≈ 965 µM)
- cytotoxicity [3]: no cytotoxicity was observed
- Exper. Activity [4]: Active
- Exper. Activity [5]: Inactive
- Exper. Activity [6]: Inactive
- Exper. Activity [7]: Inactive
- Exper. Activity [8]: Active
- Exper. Activity [9]: Inactive
- Exper. Activity [10]: Inactive
- Exper. Activity [11]: Active
- Exper. Activity [12]: Inactive
- Exper. Activity [13]: Inactive
- Exper. Activity [14]: Inactive
